Values quoted from earlier work in PubChem BioAssay AID1259409 (Chemical Carcinogenesis Research Information System (CCRIS), 2018).

Test system: rodent chemically induced tumor inhibition, incidence and multiplicity
Assay: CCRIS tumor inhibitor studies

Oc1cccc(O)c1
tumour outcome (control, treated, inhibition, significance) (Carcinogen: 3,2'-DIMETHYL-4-AMINOBIPHENYL, 13394-86-0, Dose [Inhibitor]: 0, 0.8% IN BASAL DIET BEGINNING POST CARCINOGEN TREATMENT AND CONTINUING FOR 40 WK (STUDY DURATION: 60 WK), Route [Inhibitor]: ORAL, Species: RAT, Strain/Sex: F344/MALE, Target Tissue: Type of Lesion: LARGE INTESTINE: ADENOMA AND ADENOCARCINOMA, Dose [Carcinogen]: 50 MG/KG 1/2 WK FOR 20 WK TO RATS MAINTAINED ON ETHINYL ESTRADIOL CONTAINING DIET (0.75 PPM) FOR 1 WK CYCLED WITH ETHINY, Promoter: ETHINYL ESTRADIOL, 57-63-6): 3/10 (30%), 6/10 (60%), -100%, not significant | tumour outcome (control, treated, inhibition, significance) (Carcinogen: 3,2'-DIMETHYL-4-AMINOBIPHENYL, 13394-86-0, Dose [Inhibitor]: 0, 0.8% IN BASAL DIET BEGINNING POST CARCINOGEN TREATMENT AND CONTINUING FOR 40 WK (STUDY DURATION: 60 WK), Route [Inhibitor]: ORAL, Species: RAT, Strain/Sex: F344/MALE, Target Tissue: Type of Lesion: PANCREAS: ACINAR CELL NODULE, Dose [Carcinogen]: 50 MG/KG 1/2 WK FOR 20 WK TO RATS MAINTAINED ON ETHINYL ESTRADIOL CONTAINING DIET (0.75 PPM) FOR 1 WK CYCLED WITH ETHINY, Promoter: ETHINYL ESTRADIOL, 57-63-6): 4/10 (40%), 3/10 (30%), 25%, not significant | tumour outcome (control, treated, inhibition, significance) (Carcinogen: 3,2'-DIMETHYL-4-AMINOBIPHENYL, 13394-86-0, Dose [Inhibitor]: 0, 0.8% IN BASAL DIET BEGINNING POST CARCINOGEN TREATMENT AND CONTINUING FOR 40 WK (STUDY DURATION: 60 WK), Route [Inhibitor]: ORAL, Species: RAT, Strain/Sex: F344/MALE, Target Tissue: Type of Lesion: PREPUTIAL GLAND: ADENOMA AND CARCINOMA, Dose [Carcinogen]: 50 MG/KG 1/2 WK FOR 20 WK TO RATS MAINTAINED ON ETHINYL ESTRADIOL CONTAINING DIET (0.75 PPM) FOR 1 WK CYCLED WITH ETHINY, Promoter: ETHINYL ESTRADIOL, 57-63-6): 5/10 (50%), 3/10 (30%), 40%, not significant | tumour outcome (control, treated, inhibition, significance) (Carcinogen: 3,2'-DIMETHYL-4-AMINOBIPHENYL, 13394-86-0, Dose [Inhibitor]: 0, 0.8% IN BASAL DIET BEGINNING POST CARCINOGEN TREATMENT AND CONTINUING FOR 40 WK (STUDY DURATION: 60 WK), Route [Inhibitor]: ORAL, Species: RAT, Strain/Sex: F344/MALE, Target Tissue: Type of Lesion: PROSTATE: CARCINOMA, Dose [Carcinogen]: 50 MG/KG 1/2 WK FOR 20 WK TO RATS MAINTAINED ON ETHINYL ESTRADIOL CONTAINING DIET (0.75 PPM) FOR 1 WK CYCLED WITH ETHINY, Promoter: ETHINYL ESTRADIOL, 57-63-6): 5/10 (50%), 3/10 (30%), 40%, not significant | tumour outcome (control, treated, inhibition, significance) (Carcinogen: 3,2'-DIMETHYL-4-AMINOBIPHENYL, 13394-86-0, Dose [Inhibitor]: 0, 0.8% IN BASAL DIET BEGINNING POST CARCINOGEN TREATMENT AND CONTINUING FOR 40 WK (STUDY DURATION: 60 WK), Route [Inhibitor]: ORAL, Species: RAT, Strain/Sex: F344/MALE, Target Tissue: Type of Lesion: SMALL INTESTINE: ADENOMA AND ADENOCARCINOMA, Dose [Carcinogen]: 50 MG/KG 1/2 WK FOR 20 WK TO RATS MAINTAINED ON ETHINYL ESTRADIOL CONTAINING DIET (0.75 PPM) FOR 1 WK CYCLED WITH ETHINY, Promoter: ETHINYL ESTRADIOL, 57-63-6): 2/10 (20%), 2/10 (20%), 0%, not significant | tumour outcome (control, treated, inhibition, significance) (Carcinogen: 3,2'-DIMETHYL-4-AMINOBIPHENYL, 13394-86-0, Dose [Inhibitor]: 0, 0.8% IN BASAL DIET BEGINNING POST CARCINOGEN TREATMENT AND CONTINUING FOR 40 WK (STUDY DURATION: 60 WK), Route [Inhibitor]: ORAL, Species: RAT, Strain/Sex: F344/MALE, Target Tissue: Type of Lesion: SUBCUTIS: TUMOR, Dose [Carcinogen]: 50 MG/KG 1/2 WK FOR 20 WK TO RATS MAINTAINED ON ETHINYL ESTRADIOL CONTAINING DIET (0.75 PPM) FOR 1 WK CYCLED WITH ETHINY, Promoter: ETHINYL ESTRADIOL, 57-63-6): 1/10 (10%), 1/10 (10%), 0%, not significant | tumour outcome (control, treated, inhibition, significance) (Carcinogen: 3,2'-DIMETHYL-4-AMINOBIPHENYL, 13394-86-0, Dose [Inhibitor]: 0, 0.8% IN BASAL DIET BEGINNING POST CARCINOGEN TREATMENT AND CONTINUING FOR 40 WK (STUDY DURATION: 60 WK), Route [Inhibitor]: ORAL, Species: RAT, Strain/Sex: F344/MALE, Target Tissue: Type of Lesion: ZYMBAL GLAND: ADENOMA OR CARCINOMA, Dose [Carcinogen]: 50 MG/KG 1/2 WK FOR 20 WK TO RATS MAINTAINED ON ETHINYL ESTRADIOL CONTAINING DIET (0.75 PPM) FOR 1 WK CYCLED WITH ETHINY, Promoter: ETHINYL ESTRADIOL, 57-63-6): 2/10 (20%), 2/10 (20%), 0%, not significant | tumour outcome (control, treated, inhibition, significance) (Carcinogen: BENZO[A]PYRENE, 50-32-8, Dose [Inhibitor]: 10 MG IN 0.1 ML ACETONE 3/WK ADMINISTERED SIMULTANEOUSLY WITH CARCINOGEN FOR DU RATION OF STUDY (STUDY DURATION: 368 D), Route [Inhibitor]: DERMAL, Species: MOUSE, Strain/Sex: ICR/FEMALE, Target Tissue: Type of Lesion: SKIN: PAPILLOMA, Dose [Carcinogen]: 5 UG IN 0.1 ML ACETONE THAT ALSO CONTAINED AGENT 3/WK FOR DURATION OF STUDY, Promoter: NONE USED): 14/50 (28%), 5/50 (10%), 64%, not calculated | tumour outcome (control, treated, inhibition, significance) (Carcinogen: BENZO[A]PYRENE, 50-32-8, Dose [Inhibitor]: 10 MG IN 0.1 ML ACETONE 3/WK ADMINISTERED SIMULTANEOUSLY WITH CARCINOGEN FOR DU RATION OF STUDY (STUDY DURATION: 368 D), Route [Inhibitor]: DERMAL, Species: MOUSE, Strain/Sex: ICR/FEMALE, Target Tissue: Type of Lesion: SKIN: SQUAMOUS CARCINOMA, Dose [Carcinogen]: 5 UG IN 0.1 ML ACETONE THAT ALSO CONTAINED AGENT 3/WK FOR DURATION OF STUDY, Promoter: NONE USED): 10/50 (20%), 2/50 (4%), 80%, not calculated | tumour outcome (control, treated, inhibition, significance) (Carcinogen: N-BIS(2-HYDROXYPROPYL)NITROSAMINE, 53609-64-6, Dose [Inhibitor]: 0, 0.8% IN DIET FOR 30 WK BEGINNING POST CARCINOGEN (STUDY DURATION: 32 WK), Route [Inhibitor]: ORAL, Species: RAT, Strain/Sex: F344/MALE, Target Tissue: Type of Lesion: LUNG: CARCINOMA, Dose [Carcinogen]: 0.1% IN DRINKING WATER FOR 2 WK, Promoter: NONE USED): 45%, 40%, 11%, not calculated | tumour outcome (control, treated, inhibition, significance) (Carcinogen: N-BIS(2-HYDROXYPROPYL)NITROSAMINE, 53609-64-6, Dose [Inhibitor]: 0, 0.8% IN DIET FOR 30 WK BEGINNING POST CARCINOGEN TREATMENT (STUDY DURATION: 32 WK), Route [Inhibitor]: ORAL, Species: RAT, Strain/Sex: F344/MALE, Target Tissue: Type of Lesion: BLADDER: ADENOMA, Dose [Carcinogen]: 0.1% IN DRINKING WATER FOR 2 WK, Promoter: NONE USED): 5%, 10%, -100%, not calculated | tumour outcome (control, treated, inhibition, significance) (Carcinogen: N-BIS(2-HYDROXYPROPYL)NITROSAMINE, 53609-64-6, Dose [Inhibitor]: 0, 0.8% IN DIET FOR 30 WK BEGINNING POST CARCINOGEN TREATMENT (STUDY DURATION: 32 WK), Route [Inhibitor]: ORAL, Species: RAT, Strain/Sex: F344/MALE, Target Tissue: Type of Lesion: KIDNEY: TUMOR, Dose [Carcinogen]: 0.1% IN DRINKING WATER FOR 2 WK, Promoter: NONE USED): 10%, 35%, -250%, not calculated
